Results as given in ChEMBL document CHEMBL4393657, “Tetrazole hybrids and their antifungal activities” (2019).
In brackets after ≈: the same amount, converted by molar mass.

How the values were obtained:
Assay type in all cases: functional
Candida albicans [1] = assay: Antifungal activity against Candida albicans MTCC 227 assessed as reduction in fungal cell growth incubated for 24 and 48 hrs by broth microdilution method
Aspergillus fumigatus [2] = assay: Antifungal activity against Aspergillus fumigatus assessed as reduction in fungal cell growth incubated for 24 and 48 hrs by broth microdilution method
Candida albicans [3] = assay: Potency index, ratio for MIC of griseofulvin to MIC of compound for antifungal activity against Candida albicans MTCC 227 assessed as reduction in fungal cell growth incubated for 24 and 48 hrs by broth microdilution method
Candida albicans [4] = assay: Antifungal activity against Candida albicans assessed as reduction in fungal cell growth incubated for 24 hrs by broth microdilution method
Nakaseomyces glabratus [5] = assay: Antifungal activity against Candida glabrata assessed as reduction in fungal cell growth incubated for 24 hrs by broth microdilution method
Pichia kudriavzevii [6] = assay: Antifungal activity against Candida krusei assessed as reduction in fungal cell growth incubated for 24 hrs by broth microdilution method
Candida tropicalis [7] = assay: Antifungal activity against Candida tropicalis assessed as reduction in fungal cell growth incubated for 24 hrs by broth microdilution method
Candida albicans [8] = assay: Antifungal activity against Candida albicans MTCC183 assessed as reduction in fungal cell growth incubated for 24 to 48 hrs
Aspergillus niger [9] = assay: Antifungal activity against Aspergillus niger MTCC281 assessed as reduction in fungal cell growth incubated for 24 to 48 hrs
Cryptococcus neoformans [10] = assay: Antifungal activity against Cryptococcus neoformans LA314 assessed as reduction in fungal cell growth incubated for 48 hrs by broth microdilution method; details: LA314, 48 h
Nakaseomyces glabratus [11] = assay: Antifungal activity against Candida glabrata assessed as reduction in fungal cell growth incubated for 48 hrs by broth microdilution method
Candida parapsilosis [12] = assay: Antifungal activity against Candida parapsilosis ATCC 22019 assessed as reduction in fungal cell growth incubated for 48 hrs by broth microdilution method; details: Lodderomyces parapsilosis, ATCC 22019, 48 h
Pichia kudriavzevii [13] = assay: Antifungal activity against Candida krusei assessed as reduction in fungal cell growth incubated for 48 hrs by broth microdilution method
Candida tropicalis [14] = assay: Antifungal activity against Candida tropicalis assessed as reduction in fungal cell growth incubated for 48 hrs by broth microdilution method
Aspergillus niger [15] = assay: Antifungal activity against Aspergillus niger assessed as reduction in fungal cell growth incubated for 72 hrs by broth microdilution method
Candida albicans [16] = assay: Antifungal activity against Candida albicans V-01-191A-261 assessed as reduction in fungal cell growth incubated for 48 hrs by broth microdilution method; details: V-01-191A-261, 48 h
Aspergillus niger [17] = assay: Antifungal activity against Aspergillus niger assessed as inhibition zone at 1 ug/ml incubated for 24 to 72 hrs by disk diffusion method
Aspergillus fumigatus [18] = assay: Antifungal activity against Aspergillus fumigatus assessed as inhibition zone at 1 ug/ml incubated for 24 to 72 hrs by disk diffusion method
Aspergillus flavus [19] = assay: Antifungal activity against Aspergillus flavus assessed as inhibition zone at 1 ug/ml incubated for 24 to 72 hrs by disk diffusion method
Trichoderma harzianum = assay: Antifungal activity against Trichoderma harzianum assessed as inhibition zone at 1 ug/ml incubated for 24 to 72 hrs by disk diffusion method
Candida albicans [20] = assay: Antifungal activity against Candida albicans
Aspergillus niger [21] = assay: Antifungal activity against Aspergillus niger
Aspergillus fumigatus [22] = assay: Antifungal activity against Aspergillus fumigatus
Saccharomyces cerevisiae = assay: Antifungal activity against Saccharomyces cerevisiae
Candida albicans [23] = assay: Antifungal activity against Candida albicans assessed as reduction in fungal cell growth incubated for 48 hrs by broth microdilution method
Candida tropicalis [24] = assay: Potency index, ratio for MIC of fluconazole to MIC of compound for Antifungal activity against Candida tropicalis assessed as reduction in fungal cell growth incubated for 48 hrs by broth microdilution method
Candida parapsilosis [25] = assay: Potency index, ratio for MIC of fluconazole to MIC of compound for Antifungal activity against Candida parapsilosis ATCC 22019 assessed as reduction in fungal cell growth incubated for 48 hrs by broth microdilution method
Nakaseomyces glabratus [26] = assay: Potency index, ratio for MIC of fluconazole to MIC of compound for antifungal activity against Candida glabrata assessed as reduction in fungal cell growth incubated for 48 hrs by broth microdilution method
Cryptococcus neoformans [27] = assay: Potency index, ratio for MIC of fluconazole to MIC of compound for antifungal activity against Cryptococcus neoformans LA314 assessed as reduction in fungal cell growth incubated for 48 hrs by broth microdilution method
Aspergillus niger [28] = assay: Potency index, ratio for MIC of fluconazole to MIC of compound for antifungal activity against Aspergillus niger
Candida albicans [29] = assay: Potency index, ratio for MIC of fluconazole to MIC of compound for antifungal activity against Candida albicans V-01-191A-261 assessed as reduction in fungal cell growth incubated for 48 hrs by broth microdilution method
Nakaseomyces glabratus [30] = assay: Antifungal activity against Candida glabrata ATCC 36583 by broth microdilution method
Candida tropicalis [31] = assay: Antifungal activity against Candida tropicalis by broth microdilution method
Candida albicans [32] = assay: Antifungal activity against Candida albicans NCCS 3471 assessed as inhibition zone at 50 ug/ml by disk diffusion method; details: read-out: IZ
Aspergillus niger [33] = assay: Antifungal activity against Aspergillus niger assessed as inhibition zone at 50 ug/ml by disk diffusion method; details: read-out: IZ
Candida albicans [34] = assay: Antifungal activity against Candida albicans NCCS 3471 assessed as inhibition zone at 10 ug/ml incubated for 3 to 4 days by disk diffusion method; details: read-out: IZ
Aspergillus fumigatus [35] = assay: Antifungal activity against Aspergillus fumigatus NCIM 902 assessed as inhibition zone at 10 ug/ml incubated for 3 to 4 days by disk diffusion method; details: read-out: IZ
Aspergillus flavus [36] = assay: Antifungal activity against Aspergillus flavus NCIM 524 assessed as reduction in fungal cell growth incubated for 3 to 4 days by disk diffusion method
Aspergillus fumigatus [37] = assay: Antifungal activity against Aspergillus fumigatus NCIM 902 assessed as reduction in fungal cell growth incubated for 3 to 4 days by disk diffusion method
Talaromyces marneffei = assay: Antifungal activity against Penicillium marneffei assessed as reduction in fungal cell growth incubated for 3 to 4 days by disk diffusion method
[38] = system: Trichophyton mentagrophytes; assay: Antifungal activity against Trichophyton mentagrophytes assessed as reduction in fungal cell growth incubated for 3 to 4 days by disk diffusion method
Candida albicans [39] = assay: Antifungal activity against Candida albicans ATCC 885653 assessed as inhibition zone at 100 ug/ml incubated for 48 to 72 hrs by agar-diffusion method

Molecule: Cc1ccc2[nH]c(-c3cc4cc(Cl)ccc4n4nnnc34)nc2c1
- MIC (Candida albicans [1]): 125 µg/mL (≈ 373 µM)
- MIC (Aspergillus fumigatus [2]): 125 to 1000 µg/mL (≈ 373 to 2990 µM)
- Ratio (Candida albicans [3]): 4

Molecule: Fc1cc2nc(SCc3ccc(-c4ccccc4-c4nnnn4C(c4ccccc4)(c4ccccc4)c4ccccc4)cc3)[nH]c2cc1-n1ccnc1
- MIC (Candida albicans [4]): 8 to 16 µg/mL (≈ 11.3 to 22.5 µM)
- MIC (Nakaseomyces glabratus [5]): 8 to 16 µg/mL (≈ 11.3 to 22.5 µM)
- MIC (Pichia kudriavzevii [6]): 8 to 16 µg/mL (≈ 11.3 to 22.5 µM)
- MIC (Candida tropicalis [7]): 8 to 16 µg/mL (≈ 11.3 to 22.5 µM)

Molecule: c1cnc(-c2nn3nnnc3o2)cn1
- MIC (Candida albicans [8]): 50 µg/mL (≈ 264 µM)
- MIC (Aspergillus niger [9]): 100 µg/mL (≈ 529 µM)

Molecule: C[C@@H](c1ncncc1F)[C@](O)(Cn1cncn1)c1ccc(F)cc1F [VORICONAZOLE]
- MIC (Cryptococcus neoformans [10]): 0.015 to 0.5 µg/mL (≈ 0.0429 to 1.43 µM)
- MIC (Nakaseomyces glabratus [11]): 0.015 to 0.5 µg/mL (≈ 0.0429 to 1.43 µM)
- MIC (Candida parapsilosis [12]): 0.015 to 0.5 µg/mL (≈ 0.0429 to 1.43 µM)
- MIC (Pichia kudriavzevii [13]): 0.015 to 0.5 µg/mL (≈ 0.0429 to 1.43 µM)
- MIC (Candida tropicalis [14]): 0.015 to 0.5 µg/mL (≈ 0.0429 to 1.43 µM)
- MIC (Aspergillus niger [15]): 0.015 to 0.5 µg/mL (≈ 0.0429 to 1.43 µM)
- MIC (Candida albicans [16]): 0.015 to 0.5 µg/mL (≈ 0.0429 to 1.43 µM)

Molecule: Fc1cc2nc(SCc3ccc(-c4ccccc4-c4nnnn4C(c4ccccc4)(c4ccccc4)c4ccccc4)cc3)[nH]c2cc1Oc1ccc(Cl)cc1
- MIC (Candida albicans [4]): 16 µg/mL (≈ 20.7 µM)
- MIC (Nakaseomyces glabratus [5]): 16 µg/mL (≈ 20.7 µM)
- MIC (Pichia kudriavzevii [6]): 16 µg/mL (≈ 20.7 µM)
- MIC (Candida tropicalis [7]): 16 µg/mL (≈ 20.7 µM)

Molecule: N#Cc1c(-c2ccco2)nc2sc3c4nnnn4cnc3n2c1=O
- zone of inhibition at 1 µg/mL (Aspergillus niger [17]; read-out: IZ): 1.8 to 2.5 mm
- zone of inhibition at 1 µg/mL (Aspergillus fumigatus [18]; read-out: IZ): 1.8 to 2.5 mm
- zone of inhibition at 1 µg/mL (Aspergillus flavus [19]; read-out: IZ): 1.8 to 2.5 mm
- zone of inhibition at 1 µg/mL (Trichoderma harzianum; read-out: IZ): 1.8 to 2.5 mm

Molecule: O=C(/C=C/c1ccc([N+](=O)[O-])cc1)c1ccc(-n2nnnc2-c2nc(-c3nnnn3-c3ccc(C(=O)/C=C/c4ccc([N+](=O)[O-])cc4)cc3)nc(-c3nnnn3-c3ccc(C(=O)/C=C/c4ccc([N+](=O)[O-])cc4)cc3)n2)cc1
- MIC (Candida albicans [20]): < 2.5 µg/mL
- MIC (Aspergillus niger [21]): < 2.5 µg/mL
- MIC (Aspergillus fumigatus [22]): < 2.5 µg/mL
- MIC (Saccharomyces cerevisiae): < 2.5 µg/mL

Molecule: C[C@H](n1nnnc1CCN1CCN(c2cccc(C(F)(F)F)c2)CC1)[C@](O)(Cn1cncn1)c1ccc(F)cc1F
- MIC (Cryptococcus neoformans [10]): 0.12 to 1 µg/mL (≈ 0.208 to 1.73 µM)
- MIC (Nakaseomyces glabratus [11]): 0.12 to 1 µg/mL (≈ 0.208 to 1.73 µM)
- MIC (Candida parapsilosis [12]): 0.12 to 1 µg/mL (≈ 0.208 to 1.73 µM)
- MIC (Pichia kudriavzevii [13]): 0.12 to 1 µg/mL (≈ 0.208 to 1.73 µM)
- MIC (Candida albicans [23]): 0.12 to 16 µg/mL (≈ 0.208 to 27.7 µM)
- MIC (Candida tropicalis [14]): 0.12 to 1 µg/mL (≈ 0.208 to 1.73 µM)
- MIC (Aspergillus niger [15]): 0.12 to 1 µg/mL (≈ 0.208 to 1.73 µM)
- Ratio (Candida tropicalis [24]): 16
- Ratio (Candida parapsilosis [25]): 16
- Ratio (Nakaseomyces glabratus [26]): 16
- Ratio (Cryptococcus neoformans [27]): 16
- Ratio (Aspergillus niger [28]): 16
- Ratio (Candida albicans [29]): 16

Molecule: CC(=O)N1CCN(c2ccc(OCC3COC(Cn4ccnc4)(c4ccc(Cl)cc4Cl)O3)cc2)CC1 (stereo not given) [KETOCONAZOLE]
- MIC (Candida albicans [20]): 25 to 50 µg/mL (≈ 47 to 94.1 µM)
- MIC (Nakaseomyces glabratus [30]): 25 to 50 µg/mL (≈ 47 to 94.1 µM)
- MIC (Candida tropicalis [31]): 25 to 50 µg/mL (≈ 47 to 94.1 µM)
- zone of inhibition at 50 µg/mL (Candida albicans [32]): 26 mm
- zone of inhibition at 50 µg/mL (Aspergillus niger [33]): 23 mm
- zone of inhibition at 10 µg/mL (Candida albicans [34]): 24 mm
- zone of inhibition at 10 µg/mL (Aspergillus fumigatus [35]): 23 mm

Molecule: CCC(C)n1ncn(-c2ccc(N3CCN(c4ccc(OCC5COC(Cn6cncn6)(c6ccc(Cl)cc6Cl)O5)cc4)CC3)cc2)c1=O (stereo not given) [ITRACONAZOLE]
- MIC (Cryptococcus neoformans [10]): 0.007 to 0.5 µg/mL (≈ 0.00992 to 0.709 µM)
- MIC (Nakaseomyces glabratus [11]): 0.007 to 0.5 µg/mL (≈ 0.00992 to 0.709 µM)
- MIC (Candida parapsilosis [12]): 0.007 to 0.5 µg/mL (≈ 0.00992 to 0.709 µM)
- MIC (Pichia kudriavzevii [13]): 0.007 to 0.5 µg/mL (≈ 0.00992 to 0.709 µM)
- MIC (Candida albicans [23]): 0.007 to 0.5 µg/mL (≈ 0.00992 to 0.709 µM)
- MIC (Candida tropicalis [14]): 0.007 to 0.5 µg/mL (≈ 0.00992 to 0.709 µM)
- MIC (Aspergillus niger [15]): 0.007 to 0.5 µg/mL (≈ 0.00992 to 0.709 µM)
- MIC (Aspergillus flavus [36]): 6.25 µg/mL (≈ 8.86 µM)
- MIC (Aspergillus fumigatus [37]): 6.25 µg/mL (≈ 8.86 µM)
- MIC (Talaromyces marneffei): 6.25 µg/mL (≈ 8.86 µM)
- MIC [38]: 6.25 µg/mL (≈ 8.86 µM)

Molecule: NYSTATIN
- MIC (Candida albicans [1]): 100 µg/mL
- inhibition zone (IZ) (Aspergillus niger [17]): 2.4 to 2.8 mm
- inhibition zone (IZ) (Aspergillus fumigatus [18]): 2.4 to 2.8 mm
- inhibition zone (IZ) (Aspergillus flavus [19]): 2.4 to 2.8 mm
- inhibition zone (IZ) (Candida albicans [39]): 21 mm
- inhibition zone (IZ) (Trichoderma harzianum): 2.4 to 2.8 mm
